According to patent US8993565B2, “(6-oxo-1,6-dihydropyrimidin-2-yl)amide derivatives, preparation thereof and pharmaceutical use thereof as AKT(PKB) phosphorylation inhibitors” (Sanofi, priority 2009, dated 2015):

Key:
[1] = system: AKT protein phosphorylated on serine 473 (P-AKT-S473); test: Study of pAKT expression in PC3 human prostate carcinoma cells measured by the MSD Multi-spot Biomarker Detection technique (Test B); type: cell-based; conditions: PC-3, inhibition of AKT phosphorylation (P-AKT-S473), MSD sandwich immunoassay, 1 to 2 h incubation, absolute IC50, mean of 2 experiments
How it was run: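 Lysate P-AKT-S473 quantified by MSD electrochemiluminescent sandwich immunoassay; inhibition vs DMSO and cell-free background, IC50 averaged over 2 experiments.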

[2] = system: AKT protein phosphorylated on serine 473 (pAKT-S473); test: Study of pAKT expression in PC3 human prostate carcinoma cells measured by western blotting (Test A); type: cell-based; conditions: PC-3, inhibition of AKT phosphorylation (pAKT-S473), 1 to 2 hours incubation, absolute IC50, mean of two experiments
Description: The inhibitory activity of the molecules on AKT phosphorylation is measured either by western blotting using the technique described below, or by the MSD Multi-spot Biomarker detection technique from Meso Scale Discovery also described below.
Study of pAKT Expression in PC3 Human Prostate Carcinoma Cells Measured by Western Blotting (Test A):
On day 2, the cells are incubated in the presence or absence of the test products for 1 to 2 hours at 37° C. in the presence of 5% CO2. The molecules, diluted in dimethyl sulphoxide (DMSO Sigma #D2650), are added from a 10-times concentrated stock solution, the final percentage of DMSO being 0.1%. The molecules are tested either at a single concentration of less than or equal to 10 μM, or at increasing concentrations in a range that can extend from less than 1 nM to 10 μM.
After this incubation, the cells are lysed for the preparation of the proteins.
The lysate is centrifuged for 10 min at 6000 rpm. 155 μl of supernatant are recovered. 150 μl are incubated for denaturation for 5 min at 95° C. in the presence of 4× NuPAGE LDS Sample Buffer diluted 4-fold (InVitrogen ref NP0007) and of 10× NuPAGE Sample Reducing Agent diluted 10-fold (InVitrogen ref NP0009). These samples are then frozen at −20° C.
The gel is then transferred on to an Invitrolon PVDF membrane (Invitrogen #LC2007) permeabilised beforehand and for a few seconds in ethanol (Ethanol Fischer Scientific #E/0600DF/15).
The transfer is carried out in a Biorad tank at 30 volts overnight or at 60 volts for 3 hours, in the presence of 20× NUPAGE Transfer Buffer diluted 20-fold (InVitrogen ref NP0006).
The membrane is then saturated in saturating solution composed of TBS (10× Tris Buffered Saline, Sigma #T5912, diluted 10-fold), 0.1% Tween (Sigma #P5927) and 3% BSA (Bovine Albumin Serum Fraction V, Sigma #A4503) for 6 h after overnight transfer or else for 1 h after transfer for a period of 3 h.
Two rinses for min in washing solution composed of TBS and 0.1% Tween 20 are carried out before hybridisation of the secondary antibodies.
The secondary antibodies are diluted 110000th for the rabbit anti-Mouse IgG HRP antibody (W402 Promega) and to 110000th for the goat anti-Rabbit IgG HRP antibody (W401 Promega) in saturating solution, and then shaken for 1 h at ambient temperature.
Two rinses for 30 min in washing solution are carried out and then a rinse for 5 min in H2O is carried out in order to eliminate the remaining Tween 20.
The luminescence is read with the FujiFilm device (Ray Test).
The FUJI device measures the total luminescence signal obtained (AU) for each band selected. It then subtracts the background noise (BG) proportional to the size of the band selected (Area), said background noise being calculated from a specific background noise band, with a view to obtaining the specific signal (AU-BG) for each band. The band obtained in the absence of product and in the presence of 0.1% DMSO is considered to be the 100% signal. The software calculates the % specific activity (Ratio) obtained for each band selected as a function of this 100% signal. The percentage inhibition is calculated for each concentration according to the formula (100%−Ratio).
Two independent experiments make it possible to calculate the mean of the percentages of inhibition obtained at a given concentration for the products tested only at one concentration.
Two independent experiments make it possible to calculate the mean of the IC50s.

IC50 [1]	melting point	IC50 [2]	Compound
71 nM	> 260 °C		O=C(Cc1nc(N2CCOCC2)cc(=O)[nH]1)Nc1cc(F)cc(F)c1 [Example 13, N-(3,5-difluorophenyl)-2-[4-(morpholin-4-yl)-6-oxo-1,6-dihydropyrimidin-2-yl]acetamide]
71 nM		760 nM	CCOc1cccc(NC(=O)Cc2nc(N3CCOCC3)cc(=O)[nH]2)c1 [Example 58, N-(3-ethoxyphenyl)-2-[4-(morpholin-4-yl)-6-oxo-1,6-dihydropyrimidin-2-yl]acetamide]
79 nM		202 nM	Cn1c(CC(=O)Nc2ccc(F)c(Cl)c2)nc(N2CCOCC2)cc1=O [Example 68, N-(3-chloro-4-fluorophenyl)-2-[1-methyl-4-(morpholin-4-yl)-6-oxo-1,6-dihydropyrimidin-2-yl]acetamide]
195 nM	238 °C		CCn1c(CC(=O)Nc2ccc(F)cc2)nc(N2CCOCC2)cc1=O [Example 70, 2-[1-ethyl-4-(morpholin-4-yl)-6-oxo-1,6-dihydropyrimidin-2-yl]-N-(4-fluorophenyl)acetamide]
120 nM		5380 nM	O=C(Cc1nc(N2CCOCC2)cc(=O)[nH]1)Nc1cccc2[nH]ccc12 [Example 71, N-(1 H-indol-4-yl)-2-[4-(morpholin-4-yl)-6-oxo-1,6-dihydropyrimidin-2-yl]acetamide]
89 nM	266 °C		CC(C)C(C(=O)Nc1ccc(F)cc1)c1nc(N2CCOCC2)cc(=O)[nH]1 (centres unmarked) [Example 72, N-(4-fluorophenyl)-3-methyl-2-[4-(morpholin-4-yl)-6-oxo-1,6-dihydropyrimidin-2-yl]butanamide]
69 nM	229 °C		O=C(Cc1nc(N2CCOCC2)cc(=O)[nH]1)Nc1cccc(OC(F)(F)C(F)F)c1 [Example 75, 2-[4-(morpholin-4-yl)-6-oxo-1,6-dihydropyrimidin-2-yl]-N-[3-(1,1,2,2-tetrafluoroethoxy)phenyl]acetamide]
133 nM	216 °C		Cn1c(CC(=O)Nc2cccc(C3CC3)c2)nc(N2CCOCC2)cc1=O [Example 82, N-(3-cyclopropylphenyl)-2-[1-methyl-4-(morpholin-4-yl)-6-oxo-1,6-dihydropyrimidin-2-yl]acetamide]
26 nM	245 °C		Cn1c(CC(=O)Nc2ccc(F)c(C3CC3)c2)nc(N2CCOCC2)cc1=O [Example 86, N-(3-cyclopropyl-4-fluorophenyl)-2-[1-methyl-4-(morpholin-4-yl)-6-oxo-1,6-dihydropyrimidin-2-yl]acetamide]
43 nM	244 °C		Cn1c(CC(=O)N2CCc3c(F)cccc32)nc(N2CCOCC2)cc1=O [Example 102, 2-[2-(4-fluoro-2,3-dihydro-1H-indol-1-yl)-2-oxoethyl]-3-methyl-6-(morpholin-4-yl)pyrimidin-4(3H)-one]
42 nM	235 °C		Cn1c(CC(=O)N2CCc3c(Cl)cccc32)nc(N2CCOCC2)cc1=O [Example 104, 2-[2-(4-chloro-2,3-dihydro-1H-indol-1-yl)-2-oxoethyl]-3-methyl-6-(morpholin-4-yl)pyrimidin-4(3H)-one]
27 nM	200 °C		O=C(Cc1nc(N2CCOCC2)cc(=O)[nH]1)N1c2ccccc2CC1CO (centres unmarked) [Example 106, 2-{2-[2-(hydroxymethyl)-2,3-dihydro-1 H-indol-1-yl]-2-oxoethyl}-6-(morpholin-4-yl)pyrimidin-4(3H)-one]
278 nM	229 °C		COc1cccc2c1CCN2C(=O)Cc1nc(N2CCOCC2)cc(=O)n1C [Example 110, 2-[2-(4-methoxy-2,3-dihydro-1H-indol-1-yl)-2-oxoethyl]-3-methyl-6-(morpholin-4-yl)pyrimidin-4(3H)-one]
301 nM	107.5 °C		O=C(Cc1nc(N2CCOCC2)cc(=O)[nH]1)N1CCc2ccccc2C1 [Example 111, 2-[2-(3,4-dihydroisoquinolin-2(1H)-yl)-2-oxoethyl]-6-(morpholin-4-yl)pyrimidin-4(3H)-one]
26 nM	239 °C		Cc1cccc2c1CCN2C(=O)Cc1nc(N2CCOCC2)cc(=O)n1C [Example 114, 3-methyl-2-[2-(4-methyl-2,3-dihydro-1H-indol-1-yl)-2-oxoethyl]-6-(morpholin-4-yl)pyrimidin-4(3H)-one]
10 nM	243 °C		CN(C)CC1CN(C(=O)Cc2nc(N3CCOCC3)cc(=O)[nH]2)c2ccccc21 (centres unmarked) [Example 115, 2-[2-(3-dimethylaminomethyl-2,3-dihydroindol-1-yl)-2-oxoethyl]-6-morpholin-4-yl-3H-pyrimidin-4-one]
51 nM	226 °C		Cn1c(CC(=O)N2CCc3c(Br)cccc32)nc(N2CCOCC2)cc1=O [Example 116, 2-[2-(4-bromo-2,3-dihydro-1 H-indol-1-yl)-2-oxoethyl]-3-methyl-6-(morpholin-4-yl)pyrimidin-4(3H)-one]
194 nM	225 °C		CC1CN(C(=O)Cc2nc(N3CCOCC3)cc(=O)n2C)c2ccccc21 (centres unmarked) [Example 119, 3-methyl-2-[2-(3-methyl-2,3-dihydro-1H-indol-1-yl)-2-oxoethyl]-6-(morpholin-4-yl)pyrimidin-4(3H)-one]
11 nM	112 to 115 °C		COCC1Cc2ccccc2N1C(=O)Cc1nc(N2CCOCC2)cc(=O)[nH]1 (centres unmarked) [Example 120, 2-{2-[2-(methoxymethyl)-2,3-dihydro-1H-indol-1-yl]-2-oxoethyl}-6-(morpholin-4-yl)pyrimidin-4(3H)-one]
44 nM	257 °C		CCOc1cccc2c1CCN2C(=O)Cc1nc(N2CCOCC2)cc(=O)[nH]1 [Example 121, 2-[2-(4-ethoxy-2,3-dihydro-1H-indol-1-yl)-2-oxoethyl]-6-(morpholin-4-yl)pyrimidin-4(3H)-one]
77 nM	148 °C		CC1Cc2ccccc2N1C(=O)Cc1nc(N2CCOCC2)cc(=O)n1C (centres unmarked) [Example 123, 3-methyl-2-[2-(2-methyl-2,3-dihydro-1H-indol-1-yl)-2-oxoethyl]-6-(morpholin-4-yl)pyrimidin-4(3H)-one]
124 nM	223 °C		Cn1c(CC(=O)N2CCc3ccc(F)cc32)nc(N2CCOCC2)cc1=O [Example 124, 2-[2-(6-fluoro-2,3-dihydro-1H-indol-1-yl)-2-oxoethyl]-3-methyl-6-(morpholin-4-yl)pyrimidin-4(3H)-one]
61 nM	250 °C		Cn1c(CC(=O)N2CCc3cc(F)c(F)cc32)nc(N2CCOCC2)cc1=O [Example 127, 2-[2-(5,6-difluoro-2,3-dihydro-1H-indol-1-yl)-2-oxoethyl]-3-methyl-6-(morpholin-4-yl)pyrimidin-4(3H)-one]
70 nM	254 °C		Cn1c(CC(=O)Nc2cccc3sccc23)nc(N2CCOCC2)cc1=O [Example 130, N-(1-benzothiophen-4-yl)-2-[1-methyl-4-(morpholin-4-yl)-6-oxo-1,6-dihydropyrimidin-2-yl]acetamide]
41 nM	238 °C		O=C(Cc1nc(N2CCOCC2)cc(=O)[nH]1)N1CCCc2c(Cl)cccc21 [Example 131, 2-[2-(5-chloro-3,4-dihydroquinolin-1(2H)-yl)-2-oxoethyl]-6-(morpholin-4-yl)pyrimidin-4(3H)-one]
